Measurements reported in US11891373B2, “Crystalline forms of 1-((2R,4R)-2-(1H-benzo[d]imidazol-2-yl)-1-methylpiperidin-4-yl)-3-(4-cyanophenyl)urea maleate” (priority 2015, dated 2024).
Counter-ions that a name gives are not always drawn.

Tests used:
Assay type in all cases: physicochemical
[1] = Comparative thermal stability by Differential Scanning Calorimetry (DSC); conditions: 25° C. to 250° C. at 10° C./min, dry nitrogen purge
Method: Comparative thermal stability data was generated for glasdegib dihydrochloride monohydrate (diHCl.H2O) and glasdegib maleate (Form 1). Differential Scanning calorimetry (DSC) measurements were performed with Discovery DSC (TA instruments) equipped with a refrigerated cooling accessory. All the experiments were performed in standard/Tzero aluminum pans. The cell constant was determined using indium and temperature calibration was performed using indium and tin as standards. All the measurements were done under continuous dry nitrogen purge (50 mL/min). Approximately 2-5 mg of solid sample was weighed into a standard/Tzero aluminum pan, sealed non-hermetically and heated from 25° C. to 250° C. at 10° C./min heating rate. The experimental data were analyzed using commercially available software (TA Universal Analysis 2000/Trios software, TA Instruments).

[2] = Accelerated 21-day stability study of tablets, shelf-life prediction from (2S,4R)-epimer formation; conditions: 60 cc HDPE bottle, 30 count tablets, 25° C./60% RH, epimer limit NMT 0.5%
Method: See Waterman et al., Pharmaceutical Research, 24(4): 780-790 (2007). The tablets were stored in open glass bottles and exposed to various temperature, humidities and durations.
The recommended packaging for the glasdegib dihydrochloride monohydrate tablets is HDPE/IS Bottle, with desiccant. The labeled storage condition of this product is 15-25° C.
The recommended packaging for the glasdegib maleate tablets is HDPE/IS Bottle and no desiccant is required. The labeled storage condition of this product is 15-25° C.

[3] = Chemical stability of tablet cores (5% drug loading), open dish, HPLC/Purity analysis; conditions: 5% active drug loading; for % -(2S,4R)-Epimer 6 weeks @ 50° C./75% RH: open dish
Method: Comparative chemical and physical stability data was generated for tablet cores comprising glasdegib dihydrochloride monohydrate (diHCl.H2O) and glasdegib maleate (Form 1) stored at 50° C./75% RH for 6 weeks. The tablet cores were prepared by dry granulation processing in a formulation composition comprising microcrystalline cellulose, dicalcium phosphate, sodium starch glycolate and magnesium stearate at an active drug loading level of 5%. The tablet cores were stored in open dish (no packaging) orientation in a 50° C./75% RH chamber and analyzed after 6 weeks of storage. The analytical testing included HPLC/Purity analysis and solid state NMR (for solid form).
The primary degradation product monitored is the epimeric 1-((2S,4R)-2-(1H-benzo[d]imidazol-2-yl)-1-methylpiperidin-4-yl)-3-(4-cyanophenyl)urea, which has the structure: […]

CN1CC[C@@H](NC(=O)Nc2ccc(C#N)cc2)C[C@@H]1c1nc2ccccc2[nH]1.O=C(O)/C=C\C(=O)O [Glasdegib maleate (Form 1), 1-((2R,4R)-2-(1H-benzo[d]imidazol-2-yl)-1-methylpiperidin-4-yl)-3-(4-cyanophenyl)urea maleate]
Thermal Stability (stable up to) [1]: Stable up to 207 °C | shelf-life predicted, stored without desiccant [2]: more than 6 years | % -(2S,4R)-Epimer Initial Level ([3]; before storage): 0.024% | % -(2S,4R)-Epimer 6 weeks @ 50° C./75% RH [3]: 0.55%

CN1CC[C@@H](NC(=O)Nc2ccc(C#N)cc2)C[C@@H]1c1nc2ccccc2[nH]1 [Glasdegib dihydrochloride monohydrate]
Thermal Stability (stable up to) [1]: Stable up to 50 °C | shelf-life predicted, with desiccant ([2]; with desiccant): approximately 5 years | shelf-life predicted, stored without desiccant [2]: less than 2 years | % -(2S,4R)-Epimer 6 weeks @ 50° C./75% RH [3]: 2.75%
